Among the data in patent US12258336B2, “Preparation of seimicarbazide-sensitive amine oxidase inhibitor and use thereof” (SHANGHAI ENNOVABIO PHARMACEUTICALS CO., LTD., priority 2018, dated 2025) are IC50 values, retold here.

Experiment [1] deals with T1, Recombinant human MAO-A (Homo sapiens, UniProt P21397).
T1 construct: purchased Sigma M7316
T1 sequence (P21397 1-527): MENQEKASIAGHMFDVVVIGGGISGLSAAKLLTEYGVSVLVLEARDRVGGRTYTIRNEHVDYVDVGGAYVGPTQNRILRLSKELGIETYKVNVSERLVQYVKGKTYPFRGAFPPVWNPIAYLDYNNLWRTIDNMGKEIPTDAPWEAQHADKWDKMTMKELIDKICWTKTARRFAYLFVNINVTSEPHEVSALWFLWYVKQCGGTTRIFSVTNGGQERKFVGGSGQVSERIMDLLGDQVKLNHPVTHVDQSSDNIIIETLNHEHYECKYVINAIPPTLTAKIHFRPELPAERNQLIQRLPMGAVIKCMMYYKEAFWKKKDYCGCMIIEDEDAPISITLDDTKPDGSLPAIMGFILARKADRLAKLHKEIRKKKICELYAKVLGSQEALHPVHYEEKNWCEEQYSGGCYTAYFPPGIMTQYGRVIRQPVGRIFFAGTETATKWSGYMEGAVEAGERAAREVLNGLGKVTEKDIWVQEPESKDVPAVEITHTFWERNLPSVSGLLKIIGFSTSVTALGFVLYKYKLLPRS
Nature of the experiment: Inhibitory activity on MAO-A. The format is biochemical. Here is the method: Recombinant human MAO-A and MAO-B protein was purchased from Sigma (M7316, M7441). Other reagents are the same as Biological Test Example 1. The final concentration of test compound in 10 μL reaction system was 100 μM to 5 nM when MAO-A and MAO-B were detected. The final concentrations of MAO-A and MAO-B protein in 10 μL reaction system were 70 nM and 300 nM, respectively, while other reaction conditions were the same as those in Biological Test Example 1. Data analysis and IC50 calculation method were the same as those in Biological Test Example 1.

Experiment [2] deals with T2, Recombinant human SSAO protein (Homo sapiens, UniProt Q16853).
T2 construct: Eli Lilly (provided, not a catalogue product)
T2 sequence (Q16853 1-763): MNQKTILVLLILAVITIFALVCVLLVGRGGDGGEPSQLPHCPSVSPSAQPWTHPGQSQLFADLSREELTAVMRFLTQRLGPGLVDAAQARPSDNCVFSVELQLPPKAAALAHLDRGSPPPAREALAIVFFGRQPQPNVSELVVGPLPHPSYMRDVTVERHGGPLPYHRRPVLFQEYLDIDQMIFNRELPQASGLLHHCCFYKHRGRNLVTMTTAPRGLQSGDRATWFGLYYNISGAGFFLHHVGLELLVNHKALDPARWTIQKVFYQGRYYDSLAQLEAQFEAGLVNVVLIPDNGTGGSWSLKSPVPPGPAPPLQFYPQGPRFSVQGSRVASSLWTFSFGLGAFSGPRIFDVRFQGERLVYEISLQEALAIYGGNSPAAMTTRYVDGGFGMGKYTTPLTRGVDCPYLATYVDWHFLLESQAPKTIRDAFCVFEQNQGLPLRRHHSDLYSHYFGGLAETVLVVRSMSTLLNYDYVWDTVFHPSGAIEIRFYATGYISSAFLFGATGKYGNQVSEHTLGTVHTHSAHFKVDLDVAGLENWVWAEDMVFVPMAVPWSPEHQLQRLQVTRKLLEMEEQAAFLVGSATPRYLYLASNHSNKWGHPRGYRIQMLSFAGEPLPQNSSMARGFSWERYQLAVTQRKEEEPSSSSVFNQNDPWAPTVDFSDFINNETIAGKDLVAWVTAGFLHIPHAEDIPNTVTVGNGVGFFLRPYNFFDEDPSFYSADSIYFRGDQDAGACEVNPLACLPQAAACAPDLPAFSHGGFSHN
Nature of the experiment: In vitro inhibitory activity on SSAO/VAP-1 (MAO-Glo assay), human. The format is biochemical. On the procedure: This assay was used to evaluate the in vitro inhibitory activity of the compounds on SSAO/VAP-1 of different species. Recombinant human SSAO protein, mouse SSAO protein or rat SSAO protein (provided by Eli Lilly) were used. The enzyme activity detection kit, MAO-Glo Assay kit (V1402) was purchased from Promega. Enzyme reaction buffer (50 mM HEPES, 120 mM NaCl, 5 mM KCl, 2 mM CaCl2, 1.4 mM MgCl2, 0.001% Tween-20, pH7.4) was prepared. The test compound was dissolved in DMSO and diluted by 3-fold concentration in gradient. The final concentration of test compound in a 10 μL reaction system was 1 μM to 0.05 nM when SSAO was detected. The content of DMSO in the detection reaction was 1%. After the solution of test compound in DMSO was diluted in the enzyme reaction buffer at a volume ratio of 1:25, 2.5 μL of which was added to each well of detection plate, two replicates for each concentration. 5 μL of SSAO protein diluted in the enzyme reaction buffer was added to each well, the final concentration of which was 10 nM to 80 nM in 10 μL reaction system. The mixture was incubated at room temperature for 10 minutes. 2.5 μL of the reaction substrate diluted in the enzyme reaction buffer was added to each well, the final concentration of which was 10 μM in 10 μL reaction system. After the mixture was reacted at room temperature for 120 minutes, 10 μL of detection reagent was added to each well. The reaction solution was incubated for 20 minutes at room temperature, and the plate was read with Synergy Neo 2 for detection. The value was converted into inhibition rate by the following formula: Inhibition rate=(Signalpositive−Signaltest)/(Signalpositive−Signalnegative)×100%
Signalpositive was positive control without test compound. Signalnegative was negative control without test compound and SSAO enzyme, and Signaltest was detection value of each compound at different concentrations. IC50 value was calculated by using 4 parameter curve fitting.

For orientation: IC50 means the concentration needed to halve the response being measured. On to `CC1CN(c2ncc(OC/C(=C/F)CN)cn2)CC(C)N1C1COC1` (stereo not shown) [Example 1, (E)-2-(((2-(3,5-dimethyl-4-(oxbutan-3-yl)piperazin-1-yl)pyrimidin-5-yl)oxo)methyl)-3-fluoroprop-2-en-1-amine], for which the IC50 in experiment [1] is > 100 µM; in experiment [2], < 0.01 µM.
On the same counts, the results for `COC1CC2CC1CN2c1ncc(OC/C(=C/F)CN)cn1` (stereo not shown) [Example 2] are 2 to 100 µM and < 0.01 µM.
On the same counts, the results for `NC/C(=C\F)COc1cnc(N2CCC3(CC2)COC3)nc1` [Example 3] are 2 to 100 µM and < 0.01 µM.
Taken in the same sequence, the figures for `NC/C(=C\F)COc1cnc(N2CCN(C3COC3)CC2)nc1` [Example 4, (E)-3-fluoro-2-(((2-(4-(oxbutan-3-yl)piperazin-1-yl)pyrimidin-5-yl)oxo)methyl)prop-2-en-1-amine] were > 100 µM and < 0.01 µM.
Regarding `CC1(C)CN(C2COC2)CCN1c1ncc(OC/C(=C/F)CN)cn1` [Example 5], the IC50 in experiment [1] was > 100 µM; in experiment [2], 0.01 to 0.05 µM.
Taken in the same sequence, the figures for `NC/C(=C\F)COc1cnc(N2CC3CCC(C2)N3C2COC2)nc1` [Example 6] were > 100 µM and 0.01 to 0.05 µM.
Taken in the same sequence, the figures for `N#Cc1cc(OC/C(=C/F)CN)cnc1N1CCN(C2COC2)CC1` [Example 7] were > 100 µM and > 0.05 µM.
`NC/C(=C/F)COc1cnc(N2CCN(C3COC3)CC2)nc1` [Example 8]: the figures for the IC50 in experiment [1] and in experiment [2] were 2 to 100 µM and < 0.01 µM, respectively.
Taken in the same sequence, the figures for `NC/C(=C\F)COc1cnc(N2CCN(c3cnc(N4CCN(C5COC5)CC4)nc3)CC2)nc1` [Example 9] were > 100 µM and < 0.01 µM.
On to `CC1(C)CN(c2ncc(OC/C(=C/F)CN)cn2)CCN1C1COC1` [Example 10], for which the concentration for half-maximal inhibition (IC50) in experiment [1] is > 100 µM; in experiment [2], 0.01 to 0.05 µM.
On the same counts, the results for `COC1CC2CCC(C1)N2c1ncc(OC/C(=C/F)CN)cn1` (stereo not shown) [Example 12] are 2 to 100 µM and < 0.01 µM.
